Test results published in the NIST ThermoML archive (doi:10.1016/j.fluid.2006.07.003).
Numbers after ± are expanded uncertainties.

What was measured:
[1] = Liquid; for mass density: 298.15 K, 101.33 kPa
[2] = refractive index (Na D-line) (dimensionless); conditions: 298.15 K; 101.33 kPa; Liquid; Standard Abbe refractometry

Structure (SMILES): CCCOCCC [dipropyl ether]
- mass density [1]: 741.81 ± 0.91 kg/m3
- vapor or sublimation pressure ([1]; 363.16 K): 101.3 ± 1.8 kPa
- refractive index [2]: 1.3784 ± 0.0008

Structure (SMILES): CCCCCO [pentan-1-ol]
- mass density [1]: 810.89 ± 0.77 kg/m3
- vapor or sublimation pressure ([1]; 410.62 K): 101.3 ± 1.8 kPa
- refractive index [2]: 1.408 ± 0.0008

Structure (SMILES): CCCO [propan-1-ol]
- mass density [1]: 799.62 ± 0.48 kg/m3
- vapor or sublimation pressure ([1]; 369.75 K): 101.3 ± 1.8 kPa
- refractive index [2]: 1.3836 ± 0.0007
